Assay results reported in patent US20080161399A1 (Ajinomoto Co., Inc., priority 2005, published 2008).

Target: T1, plasma albumin (Rattus norvegicus, UniProt P02770)
T1 construct: from tissue; host or cells: plasma of SD rats (carbon tetrachloride cirrhosis model and healthy controls)
Experiment: L-tryptophan binding rate to plasma albumin (ultrafiltration, LC/MS)
Format: in vitro ADME
Conditions: 37° C., n=2
Method: As a cirrhosis model rat, 25-week-old male SD rats (n=2) were prepared by administering carbon tetrachloride twice a week for 18 consecutive weeks and used, and 10-week-old healthy SD rats (n=2) were used as a control.
The plasma was preincubated at 37° C. for 20 min, 10 μL of L-tryptophan solution (10 mM) was added per 1 mL of plasma and they were mixed well (A). Solution A (450 μL) was dispensed to an ultrafiltration tube (Millipore, molecular weight 30,000 cut) and centrifuged at 3,000 g for 5 min at 37° C. to give 50 μL of filtrate (B) and 50 μL of unfiltrated solution (C). An equivalent amount of 8% (w/v) TCA solution was added to each of A and B, mixed and the mixture was centrifuged at room temperature and 3,000 g for 5 min. A protein-free supernatant was recovered. Thereto was added a 4-fold amount of 0.125% (v/v) heptafluorobutyric acid (HFBA) solution, mixed, diluted with 0.1% HFBA so that the concentration would fall within the range defined by the standard curve. Then, the concentration of L-tryptophan in each sample was quantified by the LC/MS method. The L-tryptophan binding rate to plasma albumin was shown by [1-(Trp concentration (B)/Trp concentration (A))]×100(%). The recovery rate was calculated by [Trp concentration (B)×50 μL+Trp concentration (C)×400 μL]/[Trp concentration (A)×450 μL]×100(%).

T1 sequence (P02770 25-608): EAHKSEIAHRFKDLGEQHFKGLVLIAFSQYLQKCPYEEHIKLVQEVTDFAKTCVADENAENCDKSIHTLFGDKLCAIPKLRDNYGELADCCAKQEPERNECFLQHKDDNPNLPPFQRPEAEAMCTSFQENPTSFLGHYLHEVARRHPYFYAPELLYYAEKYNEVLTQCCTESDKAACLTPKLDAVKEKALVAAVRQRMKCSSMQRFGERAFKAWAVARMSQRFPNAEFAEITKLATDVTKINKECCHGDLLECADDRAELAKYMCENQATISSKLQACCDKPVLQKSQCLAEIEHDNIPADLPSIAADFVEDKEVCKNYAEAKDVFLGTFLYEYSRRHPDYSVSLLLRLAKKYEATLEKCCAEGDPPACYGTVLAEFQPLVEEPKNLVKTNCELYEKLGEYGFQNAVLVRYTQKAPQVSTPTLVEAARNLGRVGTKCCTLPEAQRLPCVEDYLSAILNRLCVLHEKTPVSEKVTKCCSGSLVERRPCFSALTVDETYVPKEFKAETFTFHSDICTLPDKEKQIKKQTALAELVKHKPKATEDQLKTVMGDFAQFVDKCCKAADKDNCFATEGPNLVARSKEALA

Structure (SMILES): N[C@@H](Cc1c[nH]c2ccccc12)C(=O)O [L-tryptophan]
- L-tryptophan binding rate to albumin (plasma of cirrhosis model rats (carbon tetrachloride, 18 weeks)): 48%
- L-tryptophan binding rate to albumin (plasma of normal (healthy SD) rats): 83%
